Reference: patent publication US20180185510A1, “ANTIBODY DRUG CONJUGATES OF KINESIN SPINDEL PROTEIN (KSP) INHIBITORS WITH ANTI-B7H3-ANTIBODIES” (BAYER PHARMA AKTIENGESELLSCHAFT, priority 2015, published 2018)

Assays:
[1] = Flux assay for cell permeability using Caco-2 cells; conditions: human, Caco-2
[2] = tested on: NCI-H292: human mucoepidermoid lung carcinoma cells; assay: MTT assay, cytotoxicity of metabolites, NCI-H292; assay type: cell-based; conditions: NCI-H292, 96 h, 96 h incubation
Protocol: NCI-H292: human mucoepidermoid lung carcinoma cells, ATCC-CRL-1848, standard medium: RPMI 1640 (Biochrom; #FG1215, stab. glutamine)+10% FCS (Biochrom; #S0415).
(§1) The cells were cultivated according to the standard method using the growth media listed under C-1. The test is carried out by detaching the cells with a solution of Accutase in PBS (Biochrom AG #L2143), pelleting, resuspending in culture medium, counting and sowing into a 96-well culture plate with white bottom (Costar #3610) (NCI H292: 2500 cells/well in a total volume of 100 μl). The cells were then incubated in an incubator at 37° C. and 5% carbon dioxide. After 48 h, the medium was replaced. The metabolites in 10 μl of culture medium in concentrations from 10^−5M to 10^−13M were then pipetted to the cells (in triplicate), and the assay was then incubated in an incubator at 37° C. and 5% carbon dioxide. […] To this end, the MTT reagent was incubated with the cells for 4 h, followed by lysis of the cells overnight by addition of the detergent. The dye formed was detected at 570 nm (Infinite M1000 pro, Tecan). The measured data were used to calculate the IC50 of the growth inhibition using the DRC (dose response curve). The proliferation of cells which were not treated with test substance but were otherwise identically treated was defined as the 100% figure.

[3] = tested on: KPL4; assay: MTT assay, cytotoxicity of metabolites, KPL4; assay type: cell-based; conditions: KPL4, 96 h, 96 h incubation
Protocol: as §1

[4] = molecular target: T1, motor domain of the human kinesin spindle protein KSP/Eg5 (Homo sapiens, UniProt P52732); assay: Inhibition of the kinesin spindle protein, ATPase activity (malachite green); assay type: biochemical; conditions: 10 nM KSP/Eg5 motor domain, microtubuli, ATP 500 μM, 2 h RT
T1 construct: The motor domain of the human kinesin spindle protein KSP/Eg5; purchased tebu-bio/Cytoskeleton Inc 027EG01-XL
T1 sequence (P52732 18-359 limits assumed): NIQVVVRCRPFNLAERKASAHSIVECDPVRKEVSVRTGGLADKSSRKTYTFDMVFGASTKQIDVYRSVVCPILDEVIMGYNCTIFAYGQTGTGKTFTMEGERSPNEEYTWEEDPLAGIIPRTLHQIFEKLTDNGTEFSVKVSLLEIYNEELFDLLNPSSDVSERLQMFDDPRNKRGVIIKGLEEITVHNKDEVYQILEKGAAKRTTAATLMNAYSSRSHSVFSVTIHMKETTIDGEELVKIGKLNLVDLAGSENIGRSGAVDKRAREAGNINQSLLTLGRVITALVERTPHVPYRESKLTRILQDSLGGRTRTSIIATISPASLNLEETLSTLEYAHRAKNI
Protocol: The motor domain of the human kinesin spindle protein KSP/Eg5 (tebu-bio/Cytoskeleton Inc, No. 027EG01-XL) was incubated in a concentration of 10 nM with microtubuli (bovine or porcine, tebu-bio/Cytoskeleton Inc) stabilized with 50 μg/ml taxol (Sigma No. T7191-5MG) for 5 min at RT in 15 mM PIPES, pH 6.8 (5 mM MgCl2 and 10 mM DTT, Sigma). […] Incubation was at RT for 2 h. ATPase activity was detected by detecting the inorganic phosphate formed using malachite green (Biomol). […] The positive controls used were monastrol (Sigma, M8515-1 mg) and ispinesib (AdooQ Bioscience A10486). The individual data of the dose-activity curve are eight-fold determinations. The IC50 values are means of two independent experiments.

[5] = molecular target: T2, human B7H3 (RnDSystems, 2318-B3-050/CF) (human, UniProt Q5ZPR3 29-461); assay: ELISA; antibody captured on anti-human IgG Fc, antigen 37 ng/ml, anti-His HRP / Amplex Red
T2 construct: Bought antigen, detected with an anti-His HRP antibody, so a His tag is implied
T2 sequence (looked up): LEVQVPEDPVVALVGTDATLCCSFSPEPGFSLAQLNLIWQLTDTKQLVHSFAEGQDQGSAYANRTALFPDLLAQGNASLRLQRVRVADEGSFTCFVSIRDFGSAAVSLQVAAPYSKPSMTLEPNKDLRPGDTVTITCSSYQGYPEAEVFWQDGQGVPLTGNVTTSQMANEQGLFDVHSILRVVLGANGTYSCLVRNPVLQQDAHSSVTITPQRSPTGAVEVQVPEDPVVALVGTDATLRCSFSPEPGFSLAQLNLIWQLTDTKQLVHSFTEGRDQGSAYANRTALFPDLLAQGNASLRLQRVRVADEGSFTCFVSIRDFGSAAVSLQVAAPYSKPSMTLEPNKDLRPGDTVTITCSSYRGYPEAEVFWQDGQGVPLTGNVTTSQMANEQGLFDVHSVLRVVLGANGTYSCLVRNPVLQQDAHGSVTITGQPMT
Protocol: (§2) TPP5706 was synthesized as described above. Binding of TPP5706 to human B7H3 and to human B7H2 and B7H4 was characterized using ELISAs. […] After washing once with PBS, 0.05% Tween, the plate was blocked with 100% Smart Block (Candor) for one hour at 37° C. The antibody to be tested (e.g. TPP5706 or one of its derivatives) was then attached to the plate (2 μg/ml IgG in PBS, 0.05% Tween, 10% Smart Block; 1 hour, room temperature). […] After washing three times, the plate was incubated with Amplex Red for 30 minutes and then read.

[6] = molecular target: T3, human B7H2 (RnDSystems, 8206-B7) (human, UniProt O75144 19-258, limits assumed); assay: as above
T3 construct: Bought antigen, detected with an anti-His HRP antibody
T3 sequence (looked up): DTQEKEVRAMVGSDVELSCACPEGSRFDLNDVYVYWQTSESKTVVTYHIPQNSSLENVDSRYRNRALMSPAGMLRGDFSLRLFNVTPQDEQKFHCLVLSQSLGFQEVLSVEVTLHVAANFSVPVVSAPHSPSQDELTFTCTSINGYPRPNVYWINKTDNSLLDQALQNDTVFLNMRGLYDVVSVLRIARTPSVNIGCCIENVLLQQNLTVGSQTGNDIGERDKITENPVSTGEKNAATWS
Protocol: as §2

[7] = molecular target: T4, human B7H4 (RnDSystems, 6576-B7) (human, UniProt Q7Z7D3 29-258, limits assumed); assay: as above
T4 construct: Bought antigen, detected with an anti-His HRP antibody
T4 sequence (looked up): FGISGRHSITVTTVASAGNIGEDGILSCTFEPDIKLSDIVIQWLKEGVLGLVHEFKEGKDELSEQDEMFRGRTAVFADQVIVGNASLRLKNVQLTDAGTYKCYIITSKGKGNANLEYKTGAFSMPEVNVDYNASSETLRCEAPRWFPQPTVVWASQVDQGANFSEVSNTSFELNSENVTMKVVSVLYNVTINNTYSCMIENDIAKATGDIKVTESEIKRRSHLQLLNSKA
Protocol: as §2

CC(C)(C)[C@H](c1cc(-c2cc(F)ccc2F)cn1Cc1ccccc1)N(CC[C@H](N)C(=O)NCCNC(=O)CNC(=O)CC(SC[C@H](N)C(=O)O)C(=O)O)C(=O)CO (mixture of isomers) [Example M26, 4-[(2-{[2-({(2S)-2-Amino-4-[{(1R)-1-[1-benzyl-4-(2,5-difluorophenyl)-1H-pyrrol-2-yl]-2,2-dimethylpropyl}(glycoloyl)amino]butanoyl}amino)ethyl]amino}-2-oxoethyl)amino]-2-{[(2R)-2-amino-2-carboxyethyl]sulphanyl}-4-oxobutanoic acid-trifluoroacetic acid (1:1)]
Papp B→A at 2 h [1]: 1.3 ×10⁻⁶ cm/s | IC50 [2]: 63.8 nM

CC(C)(C)C(c1cc(-c2cc(F)ccc2F)cn1Cc1ccccc1)N(CC[C@H](N)C(=O)NCCNC(=O)CN1C(=O)CC(SC[C@H](N)C(=O)O)C1=O)C(=O)CO.O=C(O)C(F)(F)F (stereo partly drawn) [Example M1, S-[1-(2-{[2-({(2S)-2-Amino-4-[{(1R)-1-[1-benzyl-4-(2,5-difluorophenyl)-1H-pyrrol-2-yl]-2,2-dimethylpropyl}(glycoloyl)amino]butanoyl}amino)ethyl]amino}-2-oxoethyl)-2,5-dioxopyrrolidin-3-yl]-L-cysteine/trifluoroacetic acid (1:1)]
Papp B→A at 2 h [1]: 0.78 ×10⁻⁶ cm/s | IC50 [2]: 500 nM | IC50 [3]: 500 nM

CC(C)(C)[C@H](c1cc(-c2cc(F)ccc2F)cn1Cc1ccccc1)N(CCCN)C(=O)CO [Example M9, N-(3-Aminopropyl)-N-{(1R)-1-[1-benzyl-4-(2,5-difluorophenyl)-1H-pyrrol-2-yl]-2,2-dimethylpropyl}-2-hydroxyacetamide]
IC50 [4]: 1.07 nM

CC(C)(C)[C@H](c1cc(-c2cc(F)ccc2F)cn1Cc1ccccc1)N(CCCN)C(=O)CSC[C@H](NC(=O)CCOCCOCCOCCOCCNC(=O)CNC(=O)C(CC(=O)O)SC[C@H](N)C(=O)O)C(=O)O (stereo partly drawn) [Example M21, (2R,24S,27R)-27-Amino-2-[({2-[(3-aminopropyl) {(1R)-1-[1-benzyl-4-(2,5-difluorophenyl)-1H-pyrrol-2-yl]-2,2-dimethylpropyl}amino]-2-oxoethyl}sulphanyl)methyl]-24-(carboxymethyl)-4,20,23-trioxo-7,10,13,16-tetraoxa-25-thia-3,19,22-triazaoctacosane-1,28-dioic acid/trifluoroacetic acid (1:2)]
IC50 [4]: 2.31 nM

CC(C)(C)[C@H](c1cc(-c2cc(F)ccc2F)cn1Cc1ccccc1)N(CC[C@H](N)C(=O)NCCC(=O)N[C@@H](CCC(=O)O)C(=O)O)C(=O)CO [Example M23, N-{(2S)-2-Amino-4-[{(1R)-1-[1-benzyl-4-(2,5-difluorophenyl)-1H-pyrrol-2-yl]-2,2-dimethylpropyl}(glycoloyl)amino]butanoyl}-beta-alanyl-L-glutamic acid-trifluoroacetic acid (1:1)]
IC50 [2]: 500 nM | IC50 [3]: 500 nM

CC(C)(C)[C@H](c1cc(-c2cc(F)ccc2F)cn1Cc1ccccc1)N(CC[C@H](N)C(=O)NCCC(=O)N[C@H](CCC(=O)O)C(=O)O)C(=O)CO [Example M24, N-{(2S)-2-Amino-4-[{(1R)-1-[1-benzyl-4-(2,5-difluorophenyl)-1H-pyrrol-2-yl]-2,2-dimethylpropyl}(glycoloyl)amino]butanoyl}-beta-alanyl-D-glutamic acid-trifluoroacetic acid (1:1)]
IC50 [2]: 167 nM | IC50 [3]: 500 nM

B1: TPP-3803 (antibody, human IgG1, kappa, V domains shown)
VH: QVKLQQSGAELVKPGASVKLSCKASGYTFTNYDINWVRQRPEQGLEWIGWIFPGDGSTQYNEKFKGKATLTTDTSSSTAYMQLSRLTSEDSAVYFCARQTTATWFAYWGQGTTVTVSS
VL: DIELTQSPTTLSVTPGDRVSLSCRASQSISDYLHWYQQKSHESPRLLIKYASQSISGIPSRFSGSGSGSDFTLSINSVEPEDVGVYYCQNGHSFPLTFGAGTKLELKR
notes: also called anti-B7H3 AK1A
Quotient signal (B7)/signal (buffer) [5]: 51

B2: TPP-5706 (antibody, human IgG1, kappa, V domains shown)
VH: QVQLQQPGAELVKPGASVKMSCKASGYTFTIYNVHWIKQTPGQGLEWMGTIFPGNGDTSYNQKFKDKATLTTDKSSKTAYMQLNSLTSEDSAVYYCARWDDGNVGFAHWGQGTLVTVSA
VL: DIQMTQSPASLSASVGETVTITCRASENINNYLTWFQQKQGKSPQLLVYHAKTLAEGVPSRFSGSGSGTQFSLKINSLQPEDFGSYYCQHHYGTPPTFGGGTKLEIKR
notes: Chimera of the murine Fv of the antibody from hybridoma PTA-4058 with the Ch1-Ch3 regions of a human IgG1; expressed as complete IgG; also called anti-B7H3 AK1B
Quotient signal (B7)/signal (buffer) [5]: 294 | Quotient signal (B7)/signal (buffer) [6]: < 1.5 | Quotient signal (B7)/signal (buffer) [7]: < 1.5
